The supplement of paper PMC10627819

Assays:
S. pneumoniae D39V [1] = assay: Bliss interaction score (quartile over a dose matrix) (fitness difference); higher = more antagonism (negative = synergy)
Method in brief: (§1)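 The Bliss score takes observed fitness and subtracts the expected fitness, calculated as a product of single-drug fitness values. Those single-drug values were inferred from the combination data. Fitness is OD595 at entry into stationary phase divided by the plate's robust no-drug mean, capped at 1, and the score is summarised by quartiles across technical, biological and donor/recipient replicates.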

S. aureus DSM 20231 [2] = assay: as above
Method in brief: as §1

S. aureus Newman [3] = assay: as above
Method in brief: as §1

B. subtilis 168 [4] = assay: as above
Method in brief: as §1

S. pneumoniae D39V [5] = assay: fitness (endpoint OD595 vs no drug) (fraction); higher = more growth
Method in brief: (§2)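 Fitness expresses the optical density reached at the stationary-phase transition as a fraction of the robust mean of no-drug control wells. It is capped at 1. Measurements were OD595 every 30 min for 14 h at 37 °C after inoculation of 384-well plates at OD595 0.01 (30 µl, or 55 µl for S. pneumoniae), minus the first reading.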

S. aureus DSM 20231 [6] = assay: as above
Method in brief: as §2

S. aureus Newman [7] = assay: as above
Method in brief: as §2

B. subtilis 168 [8] = assay: as above
Method in brief: as §2
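Throughout, for Bliss interaction score (quartile over a dose matrix): first quartile when negative (synergy) and third quartile when positive (antagonism).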
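Throughout, for fitness (endpoint OD595 vs no drug): OD595 on entry to stationary phase over no-drug wells; at most 1.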

C[C@@H]1O[C@@H]1P(=O)(O)O [Fosfomycin] + CN[C@@H]1[C@H](O)[C@H](NC)[C@H]2O[C@@]3(O)C(=O)C[C@@H](C)O[C@H]3O[C@@H]2[C@H]1O [Spectinomycin]
Details	Bliss interaction score
B. subtilis 168 [4]	-0.107
S. aureus DSM 20231 [2]	-0.0508
S. aureus Newman [3]	-0.171
S. pneumoniae D39V [1]	0.0537

fitness
Details	partner 2 µg/mL	partner 4 µg/mL	partner 8 µg/mL	partner 16 µg/mL
B. subtilis 168 [8], first compound 1.562 µg/mL	0.657	0.662	0.601	–
B. subtilis 168 [8], first compound 3.124 µg/mL	0.554	0.526	0.426	–
B. subtilis 168 [8], first compound 6.248 µg/mL	0.431	0.4	0.212	–
S. aureus DSM 20231 [6], first compound 0.781 µg/mL	–	0.69	0.72	0.683
S. aureus DSM 20231 [6], first compound 1.562 µg/mL	–	0.588	0.568	0.595
S. aureus DSM 20231 [6], first compound 3.124 µg/mL	–	0.511	0.495	0.416
S. aureus Newman [7], first compound 0.781 µg/mL	–	0.574	0.58	0.497
S. aureus Newman [7], first compound 1.562 µg/mL	–	0.452	0.412	0.234
S. aureus Newman [7], first compound 3.124 µg/mL	–	0.0691	0.0277	0.0028
S. pneumoniae D39V [5], first compound 1.25 µg/mL	–	0.943	0.885	0.806
S. pneumoniae D39V [5], first compound 2.5 µg/mL	–	0.899	0.868	0.817
S. pneumoniae D39V [5], first compound 5 µg/mL	–	0.704	0.734	0.652

fitness, one replicate
Details	first compound 0.781 µg/mL	first compound 1.562 µg/mL	first compound 3.124 µg/mL
S. aureus DSM 20231 [6], partner 32 µg/mL	0.692	0.564	0.268
S. aureus DSM 20231 [6], partner 64 µg/mL	0.0413	0.0145	0.0077
S. aureus Newman [7], partner 32 µg/mL	0.056	0.0135	0
S. aureus Newman [7], partner 64 µg/mL	0.0367	0.0527	0.0276

C[C@@H]1O[C@@H]1P(=O)(O)O [Fosfomycin] + Cc1onc(-c2ccccc2)c1C(=O)N[C@@H]1C(=O)N2[C@@H]1SC(C)(C)[C@@H]2C(=O)O [Oxacillin]
Details	Bliss interaction score
B. subtilis 168 [4]	-0.0577
S. aureus DSM 20231 [2]	-0.11
S. aureus Newman [3]	-0.0668
S. pneumoniae D39V [1]	-0.154

Details	fitness
B. subtilis 168 [8], first compound 1.562 µg/mL, partner 0.002 µg/mL	0.65
B. subtilis 168 [8], first compound 1.562 µg/mL, partner 0.004 µg/mL	0.696
B. subtilis 168 [8], first compound 1.562 µg/mL, partner 0.008 µg/mL	0.568
B. subtilis 168 [8], first compound 3.124 µg/mL, partner 0.002 µg/mL	0.566
B. subtilis 168 [8], first compound 3.124 µg/mL, partner 0.004 µg/mL	0.546
B. subtilis 168 [8], first compound 3.124 µg/mL, partner 0.008 µg/mL	0.51
B. subtilis 168 [8], first compound 6.248 µg/mL, partner 0.002 µg/mL	0.358
B. subtilis 168 [8], first compound 6.248 µg/mL, partner 0.004 µg/mL	0.33
B. subtilis 168 [8], first compound 6.248 µg/mL, partner 0.008 µg/mL	0.281
S. aureus DSM 20231 [6], first compound 0.781 µg/mL, partner 0.0156 µg/mL	0.539
S. aureus DSM 20231 [6], first compound 0.781 µg/mL, partner 0.0312 µg/mL	0.504
S. aureus DSM 20231 [6], first compound 0.781 µg/mL, partner 0.0625 µg/mL	0.489
S. aureus DSM 20231 [6], first compound 1.562 µg/mL, partner 0.0156 µg/mL	0.442
S. aureus DSM 20231 [6], first compound 1.562 µg/mL, partner 0.0312 µg/mL	0.459
S. aureus DSM 20231 [6], first compound 1.562 µg/mL, partner 0.0625 µg/mL	0.362
S. aureus DSM 20231 [6], first compound 3.124 µg/mL, partner 0.0156 µg/mL	0.402
S. aureus DSM 20231 [6], first compound 3.124 µg/mL, partner 0.0312 µg/mL	0.335
S. aureus DSM 20231 [6], first compound 3.124 µg/mL, partner 0.0625 µg/mL	0.0751
S. aureus Newman [7], first compound 0.781 µg/mL, partner 0.0156 µg/mL	0.606
S. aureus Newman [7], first compound 0.781 µg/mL, partner 0.0312 µg/mL	0.563
S. aureus Newman [7], first compound 0.781 µg/mL, partner 0.0625 µg/mL	0.49
S. aureus Newman [7], first compound 1.562 µg/mL, partner 0.0156 µg/mL	0.475
S. aureus Newman [7], first compound 1.562 µg/mL, partner 0.0312 µg/mL	0.421
S. aureus Newman [7], first compound 1.562 µg/mL, partner 0.0625 µg/mL	0.279
S. aureus Newman [7], first compound 3.124 µg/mL, partner 0.0156 µg/mL	0.145
S. aureus Newman [7], first compound 3.124 µg/mL, partner 0.0312 µg/mL	0.0796
S. aureus Newman [7], first compound 3.124 µg/mL, partner 0.0625 µg/mL	0.0515
S. pneumoniae D39V [5], first compound 1.25 µg/mL, partner 0.005 µg/mL	≥ 1
S. pneumoniae D39V [5], first compound 1.25 µg/mL, partner 0.01 µg/mL	0.996
S. pneumoniae D39V [5], first compound 1.25 µg/mL, partner 0.02 µg/mL	0.916
S. pneumoniae D39V [5], first compound 1.25 µg/mL, partner 0.04 µg/mL	0.3
S. pneumoniae D39V [5], first compound 2.5 µg/mL, partner 0.005 µg/mL	0.982
S. pneumoniae D39V [5], first compound 2.5 µg/mL, partner 0.01 µg/mL	0.913
S. pneumoniae D39V [5], first compound 2.5 µg/mL, partner 0.02 µg/mL	0.843
S. pneumoniae D39V [5], first compound 2.5 µg/mL, partner 0.04 µg/mL	0.181
S. pneumoniae D39V [5], first compound 5 µg/mL, partner 0.005 µg/mL	0.85
S. pneumoniae D39V [5], first compound 5 µg/mL, partner 0.04 µg/mL	0.0702

fitness, B. subtilis 168 [8], one replicate
Details	partner 0.0078 µg/mL	partner 0.0155 µg/mL	partner 0.031 µg/mL	partner 0.075 µg/mL	partner 0.15 µg/mL	partner 0.3 µg/mL
first compound 1.562 µg/mL	0.807	0.835	0.797	0.339	0.0497	0.0455
first compound 3.124 µg/mL	0.663	0.68	0.613	0.164	0.0172	0.0362
first compound 6.248 µg/mL	0.548	0.531	0.504	0.0968	0.0104	0.0381
